Experimental data taken from patent US10195189B2, “2-phenethenyltetrahydro isoquinolines useful as anti-HIV compounds” (priority 2014, dated 2019).

Test system: HIV-1 NL4-3 viral clone expressing Renilla luciferase
Assay: microbe, parasite or virus in culture
Type: cell-based
Conditions: Human immunodeficiency virus 1, NL43, MT2, 96 h
Procedure, shortened: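 MT-2 cells (2×10^4/well) were infected at MOI 0.027 with Renilla-luciferase HIV-1 NL4-3 alongside 3-fold compound dilutions for 96 h. Spread was read by EnduRen luminescence and supernatant infectivity on TZM-bl (48 h, MUG fluorescence). Mock-infected cytotoxicity used AlamarBlue. % inhibition versus solvent was fitted by 4-parameter logistic (0–100% constrained) for EC50/CC50.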

**Q.** For `COc1cc(C)c(/C=C/C2c3cc(OC)c(OCc4ccccc4)cc3CCN2C(=O)OC(C)(C)C)cc1OCc1ccccc1` (centres unmarked) [Example Y, tert-butyl 6-benzyloxy-1-[(E)-2-(5-benzyloxy-4-methoxy-2-methyl-phenyl)vinyl]-7-methoxy-3,4-dihydro-1H-isoquinoline-2-carboxylate], which EC50 is on record?
**A.** The EC50 was 390 nM.

**Q.** Which EC50 does the source give for `COc1cc2c(cc1OCc1ccccc1)CCNC2/C=C/c1ccccc1N(C)C` (centres unmarked) [DC, (E)-2-(2-(6-(benzyloxy)-methoxy-1,2,3,4-tetrahydroisoquinolin-1-yl)vinyl)-N,N-dimethylamine] here?
**A.** Its EC50 is 830 nM.

**Q.** `COc1ccc(CCC2NCCc3cc(OC)c(OC)cc32)cc1OC` (centres unmarked) [Example A, 1-[2-(3,4-Dimethoxyphenyl)ethyl]-6,7-dimethoxy-1,2,3,4-tetrahydroisoquinoline] was tested. Which EC50 did it give?
**A.** The EC50 was 10000 nM.

**Q.** For `CCc1cc(OC)c(OCc2ccccc2)cc1/C=C/C1NCCc2cc(OCc3ccccc3)c(OC)cc21` (centres unmarked) [Example AA, 6-benzyloxy-1-[(E)-2-(5-benzyloxy-2-ethyl-4-methoxy-phenyl)vinyl]-7-methoxy-1,2,3,4-tetrahydroisoquinoline], which EC50 is on record?
**A.** Its EC50 is 148 nM.

**Q.** Which EC50 does the source give for `COc1ccc(/C=C/C2NCCc3cc(OCc4ccccc4)c(OC)cc32)cc1Cn1ccnc1C` (centres unmarked) [EN, 6-Benzyloxy-7-methoxy-1-[(E)-2-[4-methoxy-3-[(2-methylimidazol-1-yl)methyl]phenyl]vinyl]-1,2,3,4-tetrahydroisoquinolin] here?
**A.** Its EC50 is 189 nM.

**Q.** `COc1cc(OC)c(/C=C/C2NCCc3cc(OCc4ccccc4)c(OC)cc32)cc1C` (centres unmarked) [EH, 6-Benzyloxy-1-[(E)-2-(2,4-dimethoxy-5-methyl-phenyl)vinyl]-7-methoxy-1,2,3,4-tetrahydroisoquinolin] was tested. Which EC50 did it give?
**A.** Its EC50 is 66 nM.

**Q.** With `COc1cc2c(cc1OCc1ccccc1)CCNC2/C=C/c1ccc2cccnc2c1` (stereo not drawn) [DL, (E)-7-(2-(6-(benzyloxy)-7-methoxy-1,2,3,4-tetrahydroisoquinolin-1-yl)vinyl)quinoline] as the compound, how does the EC50 read?
**A.** The EC50 was 96.9 nM.

**Q.** With `COc1cc2c(cc1OCc1ccccc1)CCNC2/C=C/c1cc2c(cc1C)OCCO2` (centres unmarked) [BC, 6-Benzyloxy-7-methoxy-1-[(E)-2-(7-methyl-2,3-dihydro-1,4-benzodioxin-6-yl)vinyl]-1,2,3,4-tetrahydroisoquinoline] as the compound, how does the EC50 read?
**A.** The EC50 was 27.1 nM.

**Q.** `COc1cccc(-c2ncc(/C=C/C3NCCc4cc(OCc5ccccc5)c(OC)cc43)cn2)c1` (centres unmarked) [DN] was tested. Which EC50 did it give?
**A.** Its EC50 is 2400 nM.

**Q.** How did the EC50 turn out when `COc1cc2c(cc1OCc1ccccc1)CCNC2/C=C/c1cccc(-c2ccncc2)c1` (centres unmarked) [DQ, 6-(Benzyloxy)-7-methoxy-1-[(E)-2-[3-(pyridin-4-yl)phenyl]ethenyl]-1,2,3,4-tetrahydroisoquinoline] was run?
**A.** The EC50 was 126 nM.

**Q.** For `COc1cc2c(cc1OCc1ccccc1)CCNC2/C=C/c1ccc(-n2cncn2)cc1` (centres unmarked) [DT, 6-(Benzyloxy)-7-methoxy-1-[(E)-2-[4-(1H-1,2,4-triazol-1-yl)phenyl]ethenyl]-1,2,3,4-tetrahydroisoquinoline], which EC50 is on record?
**A.** The EC50 was 157 nM.

**Q.** For `COc1cc2c(cc1OCc1ccccc1)CCNC2/C=C/c1cc(OC(F)(F)F)ccc1C` (centres unmarked) [BH, 6-Benzyloxy-7-methoxy-1-[(E)-2-[2-methyl-5-(trifluoromethoxy)phenyl]vinyl]-1,2,3,4-tetrahydroisoquinoline], which EC50 is on record?
**A.** The EC50 was 1930 nM.

**Q.** Which EC50 does the source give for `COc1cc2occc2cc1/C=C/C1NCCc2cc(OCc3ccccc3)c(OC)cc21` (centres unmarked) [EB, 6-Benzyloxy-7-methoxy-1-[(E)-2-(6-methoxybenzofuran-5-yl)vinyl]-1,2,3,4-tetrahydroisoquinoline] here?
**A.** Its EC50 is 300 nM.

**Q.** For `COc1cc2c(cc1OCc1ccccc1)CCNC2/C=C/c1ccc(-c2ccccn2)cc1` (centres unmarked) [DZ, 6-Benzyloxy-7-methoxy-1-[(E)-2-[4-(2-pyridyl)phenyl]vinyl]-1,2,3,4-tetrahydroisoquinoline], which EC50 is on record?
**A.** Its EC50 is 650 nM.

**Q.** For `CCCCOc1ccc(/C=C/C2NCCc3cc(OCc4ccccc4)c(OC)cc32)cc1OC` (centres unmarked) [BD, 6-Benzyloxy-1-[(E)-2-(4-butoxy-3-methoxy-phenyl)vinyl]-7-methoxy-1,2,3,4-tetrahydroisoquinoline], which EC50 is on record?
**A.** Its EC50 is 408 nM.

**Q.** With `COc1cc2c(cc1OCc1ccccc1)CCNC2/C=C/c1cn(C)c2ncccc12` (centres unmarked) [DP] as the compound, how does the EC50 read?
**A.** The EC50 was 15 nM.

**Q.** With `COc1ccc(/C=C/C2NCCc3cc(OCc4ccccc4)c(OC)cc32)cc1CN1CCCCC1` (centres unmarked) [EM, 6-Benzyloxy-7-methoxy-1-[(E)-2-[4-methoxy-3-(1-piperidylmethyl)phenyl]vinyl]-1,2,3,4-tetrahydroisoquinoline] as the compound, how does the EC50 read?
**A.** The EC50 was 320 nM.

**Q.** Which EC50 does the source give for `COc1ccc(OC)c(/C=C/C2NCCc3cc(OCc4ccccc4)c(OC)cc32)c1` (centres unmarked) [EK, 6-Benzyloxy-1-[(E)-2-(2,5-dimethoxyphenyl)vinyl]-7-methoxy-1,2,3,4-tetrahydroisoquinoline] here?
**A.** The EC50 was 380 nM.

**Q.** Which EC50 does the source give for `COc1cc(Cl)c(/C=C/C2NCCc3cc(OCc4ccccc4)c(OC)cc32)cc1OCc1ccccc1` (centres unmarked) [Example AC, 6-benzyloxy-1-[(E)-2-(5-benzyloxy-2-chloro-4-methoxy-phenyl)vinyl]-7-methoxy-1,2,3,4-tetrahydroisoquinoline] here?
**A.** Its EC50 is 87.2 nM.

**Q.** With `CCCCOc1cc(/C=C/C2NCCc3cc(OCc4ccccc4)c(OC)cc32)c(C)cc1OC` (centres unmarked) [BL, 6-Benzyloxy-1-[(E)-2-(5-butoxy-4-methoxy-2-methyl-phenyl)vinyl]-7-methoxy-1,2,3,4-tetrahydroisoquinoline] as the compound, how does the EC50 read?
**A.** The EC50 was 52 nM.

**Q.** `COc1ccc(/C=C/C2NCCc3cc(OCc4ccccc4)c(OC)cc32)cn1` (centres unmarked) [AX, 6-Benzyloxy-7-methoxy-1-[(E)-2-(6-methoxy-3-pyridyl)vinyl]-1,2,3,4-tetrahydroisoquinoline] was tested. Which EC50 did it give?
**A.** Its EC50 is 3280 nM.

**Q.** With `COC(=O)N1CCc2cc(OCc3ccccc3)c(OC)cc2C1/C=C/c1ccc(OC)c(OCc2ccccc2)c1` (centres unmarked) [Example L, Methyl 6-benzyloxy-1-[(E)-2-(3-benzyloxy-4-methoxy-phenyl)vinyl]-7-methoxy-3,4-dihydro-1H-isoquinoline-2-carboxylate] as the compound, how does the EC50 read?
**A.** The EC50 was 2810 nM.

**Q.** For `COc1cc2c(cc1OCc1ccccc1)CCNC2/C=C/c1ccc2c(c1)CCO2` (centres unmarked) [BM, 6-Benzyloxy-1-[(E)-2-(2,3-dihydrobenzofuran-5-yl)vinyl]-7-methoxy-1,2,3,4-tetrahydroisoquinoline], which EC50 is on record?
**A.** Its EC50 is 146 nM.

**Q.** With `COc1cc2c(cc1OCc1ccccc1)CCNC2/C=C/c1ccc(N(C)C)cc1C` (centres unmarked) [BG, 4-[(E)-2-(6-benzyloxy-7-methoxy-1,2,3,4-tetrahydroisoquinolin-1-yl)vinyl]-N,N,3-trimethyl-aniline] as the compound, how does the EC50 read?
**A.** Its EC50 is 1650 nM.

**Q.** How did the EC50 turn out when `COc1ccc(/C=C/C2NCCc3cc(OCc4ccccc4)c(OC)cc32)cc1OCc1ccccc1` (centres unmarked) [Example AB, 6-benzyloxy-1-[(E)-2-(3-benzyloxy-4-methoxy-phenyl)vinyl]-7-methoxy-1,2,3,4-tetrahydroisoquinoline] was run?
**A.** The EC50 was 146 nM.

**Q.** `COc1cc2c(cc1OCc1ccccc1)CCNC2/C=C/c1cc2c(cc1C)OCC2` (centres unmarked) [CG, 6-Benzyloxy-7-methoxy-1-[(E)-2-(6-methyl-2,3-dihydrobenzofuran-5-yl)vinyl]-1,2,3,4-tetrahydroisoquinoline] was tested. Which EC50 did it give?
**A.** Its EC50 is 140 nM.

**Q.** `CCCCN1CCc2cc(OC)c(OCc3ccccc3)cc2C1/C=C/c1ccc(OCc2ccccc2)c(OC)c1` (centres unmarked) [Example D, 7-Benzyloxy-1-[(E)-2-(4-benzyloxy-3-methoxy-phenyl)vinyl]-2-butyl-6-methoxy-3,4-dihydro-1H-isoquinoline] was tested. Which EC50 did it give?
**A.** The EC50 was 8920 nM.

**Q.** Which EC50 does the source give for `COc1cc2c(cc1OCc1ccccc1)CCNC2/C=C/c1ccc(S(C)(=O)=O)cc1` (centres unmarked) [BZ, 6-Benzyloxy-7-methoxy-1-[(E)-2-(4-methylsulfonylphenyl)vinyl]-1,2,3,4-tetrahydroisoquinoline] here?
**A.** Its EC50 is 1000 nM.

**Q.** For `COc1cc2c(cc1OCc1ccccc1)CCNC2/C=C/c1ccccc1N1CCCCC1` (centres unmarked) [DX, 6-(Benzyloxy)-7-methoxy-1-[(E)-2-[2-(piperidin-1-yl)phenyl]ethenyl]-1,2,3,4-tetrahydroisoquinoline], which EC50 is on record?
**A.** Its EC50 is 4200 nM.

**Q.** `COc1cc(F)c(/C=C/C2NCCc3cc(OCc4ccccc4)c(OC)cc32)c(F)c1` (centres unmarked) [BU, 6-Benzyloxy-1-[(E)-2-(2,6-difluoro-4-methoxy-phenyl)vinyl]-7-methoxy-1,2,3,4-tetrahydroisoquinoline] was tested. Which EC50 did it give?
**A.** The EC50 was 1020 nM.

**Q.** `COc1cc2c(cc1OCc1ccccc1)CCNC2/C=C/c1ccc2c(c1)CCCO2` (centres unmarked) [CB, 6-Benzyloxy-1-[(E)-2-chroman-6-ylvinyl]-7-methoxy-1,2,3,4-tetrahydroisoquinoline] was tested. Which EC50 did it give?
**A.** Its EC50 is 1550 nM.

**Q.** With `COc1cc2c(cc1OCc1ccccc1)CCNC2/C=C/c1ccncc1` (centres unmarked) [AW, 6-Benzyloxy-7-methoxy-1-[(E)-2-(4-pyridyl)vinyl]-1,2,3,4-tetrahydroisoquinoline] as the compound, how does the EC50 read?
**A.** Its EC50 is 3280 nM.

**Q.** For `CCOC(=O)c1coc(-c2cccc(/C=C/C3NCCc4cc(OCc5ccccc5)c(OC)cc43)c2)n1` (centres unmarked) [EF, Ethyl 2-[3-[(E)-2-(6-benzyloxy-7-methoxy-1,2,3,4-tetrahydroisoquinolin-1-yl)vinyl]phenyl]oxazole-4-carboxylate], which EC50 is on record?
**A.** Its EC50 is 1000 nM.

**Q.** Which EC50 does the source give for `COc1ccc(/C=C/C2c3cc(OC)c(OCc4ccccc4)cc3CCN2C)cc1OCc1ccccc1` (centres unmarked) [Example V, 6-benzyloxy-1-[(E)-2-(3-benzyloxy-4-methoxy-phenyl)vinyl]-7-methoxy-2-methyl-3,4-dihydro-1H-isoquinoline] here?
**A.** The EC50 was 780 nM.

**Q.** For `COc1cc(/C=C/C2NCCc3cc(OC)c(OCc4ccccc4)cc32)ccc1OCc1ccccc1` (centres unmarked) [Example S, 7-benzyloxy-1-[(E)-2-(4-benzyloxy-3-methoxy-phenyl)vinyl]-6-methoxy-1,2,3,4-tetrahydroisoquinoline], which EC50 is on record?
**A.** The EC50 was 992 nM.

**Q.** With `COc1cc2c(cc1OCc1ccccc1)CCNC2/C=C/c1cc(OCc2ccccc2)ccc1C` (centres unmarked) [Example AD, 6-benzyloxy-1-[(E)-2-(5-benzyloxy-2-methyl-phenyl)vinyl]-7-methoxy-1,2,3,4-tetrahydroisoquinoline] as the compound, how does the EC50 read?
**A.** Its EC50 is 84 nM.

**Q.** Which EC50 does the source give for `COc1cc2c(cc1OCc1ccccc1)CCNC2c1cc(OCc2ccccc2)c(OC)cc1C` (centres unmarked) [AY, 6-(Benzyloxy)-1-(5-(benzyloxy)-4-methoxy-2-methylphenyl)-7-methoxy-1,2,3,4-tetrahydroisoquinoline] here?
**A.** Its EC50 is 4880 nM.

**Q.** For `COc1cc2c(cc1OCc1ccccc1)CCNC2/C=C/c1cc2c(cc1C)OCO2` (centres unmarked) [BB, 6-Benzyloxy-7-methoxy-1-[(E)-2-(6-methyl-1,3-benzodioxol-5-yl)vinyl]-1,2,3,4-tetrahydroisoquinoline], which EC50 is on record?
**A.** The EC50 was 54.4 nM.
